Assay results as given in patent publication US11814363B2, “Morphic forms of danicopan” (Achillion Pharmaceuticals, Inc., priority 2018, dated 2023).
≈ marks a conversion by molar mass, not a printed value. Where two headings read alike, the source gives them in different places.

Columns and labels:
Type in all cases: physicochemical
[1] = Dynamic vapor sorption (DVS) analysis
[2] = Visual solubility estimate of amorphous Compound 1 in solvents; conditions: 40 °C, thermodynamic from solid
[3] = as above
Protocol: The solubility of amorphous Compound 1 was estimated in 14 solvents to facilitate the solvent selection for the crystallization study. The solubility of Compound 1 was visually estimated at room temperature (RT; ˜23° C.) by dosing small aliquots of solvent into a fixed amount of solid (˜10 mg) until the dissolution point or a maximum volume (1.7 mL) was reached.

[4] = Relative stability of hydrated Compound 1 forms vs water activity, PXRD; conditions: for water activity value (aw) at which the form is the stable hydrate: 25° C.
Protocol: The relative stability of hydrated Compound 1 Form II, Form IV, and Form V were studied at 25° C. and the results are shown in Table 6. […] Form V was determined to be the stable hydrate at aw=0.75, with […] the stable hydrate at aw=0.90. The water activity of the solvent mixture used for the crystallization process must be below 0.55 in order to obtain Form II consistently.

[5] = Physical stability of crystal forms on heating, drying or storage, PXRD
[6] = 102097-CR6, 2-propanol: 20 vol % Water, water activity 0.9
[7] = CR5, Acetonitrile: 10 vol % Water, water activity 0.75

CC(=O)c1nn(CC(=O)N2C[C@H](F)C[C@H]2C(=O)Nc2cccc(Br)n2)c2ccc(-c3cnc(C)nc3)cc12 [Amorphous Compound 1]
solid form after the DVS experiment by PXRD ([1]; after DVS 0-90% RH): remained amorphous
water uptake (DVS) ([1]; from 0-90% RH): 4.0%
solubility ([2]; heptane, organic solvent or mixture): < 5590 µg/mL
solubility ([2]; t-butyl methyl ether, organic solvent or mixture): < 5710 µg/mL
solubility ([2]; water): < 5590 µg/mL
solubility ([3]; 1,4-dioxane, 23 °C, organic solvent or mixture, thermodynamic from solid, 1,4-Dioxane, RT (~23° C.), visually estimated, read-out: Solubility at RT): 98 to 392 mg/mL (≈ 169 to 675 mM)
solubility ([3]; 2-propanol, 23 °C, organic solvent or mixture, thermodynamic from solid, 2-Propanol, RT (~23° C.), visually estimated, read-out: Solubility at RT): < 5.71 mg/mL
solubility ([3]; 2-propanol, 40 °C, organic solvent or mixture, thermodynamic from solid, 2-Propanol, 40° C., read-out: Solubility at 40° C.): > 5.71 mg/mL
Solubility at RT ([3]; Dimethyl Sulfoxide, RT (~23° C.), visually estimated): >452 mg/mL
Solubility at RT ([3]; Heptane, RT (~23° C.), visually estimated): <5.59 mg/mL
Solubility at RT ([3]; Water, RT (~23° C.), visually estimated): <5.59 mg/mL
solubility ([3]; acetone, 23 °C, organic solvent or mixture, thermodynamic from solid, Acetone, RT (~23° C.), visually estimated, read-out: Solubility at RT): 121 to 484 mg/mL (≈ 208 to 834 mM)
solubility ([3]; acetonitrile, 23 °C, organic solvent or mixture, thermodynamic from solid, Acetonitrile, RT (~23° C.), visually estimated, read-out: Solubility at RT): 98 to 392 mg/mL (≈ 169 to 675 mM)
solubility ([3]; chloroform, 23 °C, organic solvent or mixture, thermodynamic from solid, Chloroform, RT (~23° C.), visually estimated, read-out: Solubility at RT): 92 to 368 mg/mL (≈ 159 to 634 mM)
solubility ([3]; dichloromethane, 23 °C, organic solvent or mixture, thermodynamic from solid, Dichloromethane, RT (~23° C.), visually estimated, read-out: Solubility at RT): 99 to 396 mg/mL (≈ 171 to 682 mM)
solubility ([3]; dimethyl sulfoxide, 23 °C, organic solvent or mixture, thermodynamic from solid, Dimethyl Sulfoxide, RT (~23° C.), visually estimated, read-out: Solubility at RT): > 452 mg/mL
solubility ([3]; ethyl acetate, 23 °C, organic solvent or mixture, thermodynamic from solid, Ethyl Acetate, RT (~23° C.), visually estimated, read-out: Solubility at RT): 91 to 364 mg/mL (≈ 157 to 627 mM)
solubility ([3]; heptane, 23 °C, organic solvent or mixture, thermodynamic from solid, Heptane, RT (~23° C.), visually estimated, read-out: Solubility at RT): < 6 mg/mL
solubility ([3]; methanol, 23 °C, organic solvent or mixture, thermodynamic from solid, Methanol, RT (~23° C.), visually estimated, read-out: Solubility at RT): 48 to 96 mg/mL (≈ 82.7 to 165 mM)
Solubility at RT ([3]; t-Butyl Methyl Ether (MTBE), RT (~23° C.), visually estimated): <5.71 mg/mL
solubility ([3]; t-butyl methyl ether (MTBE), 23 °C, organic solvent or mixture, thermodynamic from solid, t-Butyl Methyl Ether (MTBE), RT (~23° C.), visually estimated, read-out: Solubility at RT): < 6 mg/mL
solubility ([3]; tetrahydrofuran, 23 °C, organic solvent or mixture, thermodynamic from solid, Tetrahydrofuran, RT (~23° C.), visually estimated, read-out: Solubility at RT): 92 to 368 mg/mL (≈ 159 to 634 mM)
solubility ([3]; toluene, 23 °C, organic solvent or mixture, thermodynamic from solid, Toluene, RT (~23° C.), visually estimated, read-out: Solubility at RT): < 5.35 mg/mL
solubility ([3]; toluene, 40 °C, organic solvent or mixture, thermodynamic from solid, Toluene, 40° C., read-out: Solubility at 40° C.): > 5.35 mg/mL
solubility ([3]; water, 23 °C, water, thermodynamic from solid, Water, RT (~23° C.), visually estimated, read-out: Solubility at RT): < 6 mg/mL

CC(=O)c1nn(CC(=O)N2C[C@H](F)C[C@H]2C(=O)Nc2cccc(Br)n2)c2ccc(-c3cnc(C)nc3)cc12 [Form V]
water activity value (aw) at which the form is the stable hydrate [4]: 0.75

CC(=O)c1nn(CC(=O)N2C[C@H](F)C[C@H]2C(=O)Nc2cccc(Br)n2)c2ccc(-c3cnc(C)nc3)cc12 [Form IV]
physically stable by PXRD, time ([5]; sealed vial): at least 10 days

CC(=O)c1nn(CC(=O)N2C[C@H](F)C[C@H]2C(=O)Nc2cccc(Br)n2)c2ccc(-c3cnc(C)nc3)cc12 [Form II]
crystal form by PXRD after heating past the dehydration endotherm ([5]; heated past dehydration endotherm, returned to room temperature): does not change the crystal-form
water content of the hydrate by DVS ([1]; DVS isotherm): 2.7-4.0%
critical RH step (DVS) ([1]; reversible hydration): 30 % RH
water activity value (aw) at which the form is the stable hydrate [4]: ≤ 0.55

CC(=O)c1nn(CC(=O)N2C[C@H](F)C[C@H]2C(=O)Nc2cccc(Br)n2)c2ccc(-c3cnc(C)nc3)cc12 [Form III]
crystal form after drying ([5]; 70° C. under vacuum for 1 hour): did not change the crystal-form
water activity value (aw) at which the form is the stable hydrate [4]: 0.90

CC(=O)c1nn(CC(=O)N2C[C@H](F)C[C@H]2C(=O)Nc2cccc(Br)n2)c2ccc(-c3cnc(C)nc3)cc12 [Form VI]
PXRD pattern after sitting overnight ([5]; overnight on a PXRD holder, ambient): closely resembles Form V

CC(=O)c1nn(CC(=O)N2C[C@H](F)C[C@H]2C(=O)Nc2cccc(Br)n2)c2ccc(-c3cnc(C)nc3)cc12 [Compound 1, danicopan]
PXRD Results 4 days/RT [4, 6]: Form III
PXRD Results 8 days/RT [4, 6]: Form IH
PXRD Results 4 days/RT ([4]; CR1, 2-propanol, water activity 0): Form II
PXRD Results 4 days/RT ([4]; CR2, EtOAc, water activity 0): Form II
PXRD Results 4 days/RT ([4]; CR3, Methanol: 10 vol % Water, water activity 0.33): Form II
PXRD Results 4 days/RT ([4]; CR4, 2-propanol: 5 vol % Water, water activity 0.55): Form II
PXRD Results 4 days/RT [4, 7]: Form V
PXRD Results 8 days/RT [4, 7]: Form V
